Measured values reported in patent publication US20230235327A1, “A DBAIT MOLECULE IN COMBINATION WITH KRAS INHIBITOR FOR THE TREATMENT OF CANCER” (ONXEO, priority 2020, published 2023).

Legend:
Type in all cases: cell-based
NCI-H23 cells [1] = assay: Flow cytometry of p16, p21, pPERK and transferrin receptor
Procedure: NCI-H23 were seeded in T25 flasks at 4.105 cells per flask and then treated for 24 h with AsiDNA™ at 100 nM or 5 μM for 24 hours. For intracellular staining (pPERK and CDK p16/CDK p21, mTOR, Bcl-2 staining), cells were washed, then fixed in PBS/70% Ethanol during at least 1 hour at 4° C. Cells were then washed, permeabilized with PBS/0.2% TritonX-100 solution at RT for 30 min, and saturated with PBS/2% Bovine Serum Albumin (BSA) solution at RT for 10 min. Then, cells were washed with PBS and incubated 1 hour with respectively, FITC-conjugated anti pPERK (Biorbyt, UK, 1:120), Alexa647-conjugated anti-CDK p16 (Cell signaling, Danvers Mass., USA, 1:50), Alexa488-conjugated anti-CDK p21 (Cell signaling, Danvers Mass., USA, 1:50), Alexa488-conjugated anti-mTOR (Cell signaling, Danvers Mass., USA, 1:50), Alexa647-conjugated anti-Bcl-2 (Cell signaling, Danvers Mass., USA, 1:50) before flow cytometry analysis (Guava EasyCyte 12H, Luminex, Germany). For cell-surface receptors staining with a PE-conjugated anti-transferrin receptor antibody (Thermofisher, Waltham Mass., USA, 1:20). Stained cells were then washed with PBS and fluorescence intensities were acquired with a Guava EasyCyte 12H flow cytometer (Luminex, Germany). Data were analyzed using FlowJo software (Tree Star, CA, USA), cells were harvested and washed directly after treatment end, and then incubated for 1 hour at 4° C.

MIA PaCa-2 cells = assay: Selection of resistant populations, cell survival by cell counting; details: MIA PaCa-2, continuous 1 μM
Procedure: Cells were grown according to the supplier's instructions and maintained at 37° C. in a humidified atmosphere at 5% CO2. Medium was renewed twice a week and cells were passed when the confluence reached 70-80% depending on cell lines. Each cell line was generally kept in passage for no more than 2 months.
(§1) At least 3 to 6 independent populations were treated for each condition. Drugs were renewed twice a week to maintain a high pressure of resistance selection. Cells were harvested, washed and counted approximately ones a week after staining with 0.4% trypan blue (Sigma Aldrich, Saint-Louis, USA) using an automated cell counter (EVE™-Nanoentek).

NCI-H23 cells [2] = assay: Selection of resistant populations, cell growth by cell counting under continuous treatment
Procedure: Cell cultures were performed with non-small cell lung (NSCLC) cancer cell line NCI-H23, a KRAS^G12C mutant cell line (heterozygous mutation). The NCI-H23 cell line was purchased from the ATCC. Cells were grown according to the supplier's instructions and maintained at 37° C. in a humidified atmosphere at 5% CO2. Medium was renewed twice a week and cells were passed when the confluence reached 70-80% depending on cell lines. Each cell line was generally kept in passage for no more than 2 months.
as §1
Cells were seeded in T75 flasks with 5.10^5 cells per flask and incubated 24 hours at 37° C. before addition of AMG-510 (20 μM) with or without AsiDNA (doses ranging from 100 nM to 2500 nM). AsiDNA was added either concomitantly and continuously with the KRAS^G12C inhibitor or two weeks from the AMG-510 treatment start. At least 3 to 6 independent populations were treated for each condition. Drugs were renewed twice a week to maintain a high pressure of resistance selection. Cells were harvested, washed and counted approximately ones a week after staining with 0.4% trypan blue (Sigma Aldrich, Saint-Louis, USA) using an automated cell counter (EVE™-Nanoentek).

NCI-H23 cells [3] = assay: βgal staining (senescence detection)
Procedure: Slow cycling/senescent drug-tolerant cells were identified using Senescence detection kit according to the manufacturer instructions (Abcam; ab65351). Briefly, cells were seeded in 12-well culture plates and incubated overnight at 37° C. Cells were then washed twice with PBS, fixed during 10 minutes with 0.5 ml of Fixative solution at room temperature, washed twice with PBS and then stained using 0.5 ml of the Staining solution mix overnight at 37° C. Cells are then analyzed under microscope for development of blue color.

[4] = AMG-510 (20 μM) induced senescent cells vs parental cell line
[5] = NCI-H23 residual cells under treatment vs parental

C=CC(=O)N1CCN(c2nc(=O)n(-c3c(C)ccnc3C(C)C)c3nc(-c4c(O)cccc4F)c(F)cc23)[C@@H](C)C1 [AMG-510]
pPERK level (NCI-H23 cells [1]; [4]): increase
transferrin receptor level (NCI-H23 cells [1]; [4]): increase
p16 expression (NCI-H23 cells [1]; [5]): increases
p21 expression (NCI-H23 cells [1]; [5]): increases
time to emergence of acquired resistance after treatment start (MIA PaCa-2 cells): ~1 month
resistance acquired under continuous treatment (NCI-H23 cells [2]; NCI-H23, AMG-510 20 μM or MRTX-849 1 μM alone): de-novo resistance
time from which cells restarted to divide and entered a proliferative state (NCI-H23 cells [2]; NCI-H23, continuous AMG-510 20 μM alone): two to three
initial sensitivity of cells to the inhibitor (NCI-H23 cells [2]; NCI-H23, continuous high dose/IC90, two first weeks of treatment): very sensitive
β-gal positive staining, cells in a senescent state (NCI-H23 cells [3]; NCI-H23, Day 17 of treatment): 50%
β-gal positive staining, cells in a senescent state (NCI-H23 cells [3]; NCI-H23, Day 27 of treatment): 10%
β-gal positive staining, cells in a senescent state (NCI-H23 cells [3]; NCI-H23, day 10 of treatment): 90%
